Data on twelve molecules can be found in US20180099931A1 (AbbVie S.à.r.l., priority 2016, published 2018).

Read-outs that look alike come from different tables or passages of the source. Some results are limits rather than exact numbers.

For this assay, the target named is T1, F508delCFTR (Homo sapiens, UniProt P13569, DEL508-508).
T1 construct: expressed in transfected cells; host or cells: CFBE41o- human lung-derived epithelial cells (CFBE4lo-F508delCFTR-HRP), doxycycline-inducible
Briefly: Cell Surface Expression-Horse Radish Peroxidase (CSE-HRP) Assay.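 On Maximum % activity (with co-corrector): co-corrector and positive control are both the same reference corrector at 2 µM.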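 On Maximum % activity (without co-corrector): percent of the 2 µM on-plate positive control corrector response above DMSO.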 Format: cell-based. Particulars: for Maximum % activity (with co-corrector) / Emax: maximum at any tested concentration, normalized to on-plate positive control; for Emax: read-out: Maximum % activity (without co-corrector). The method, then: Cell Surface Expression-Horse Radish Peroxidase (CSE-HRP) Assay
The development was achieved by expressing the F508delCFTR mutation along with a horseradish peroxidase (HRP) in the fourth exofacial loop, and then measuring the HRP activity using luminescence readout from these cells, CFBE4lo-F508delCFTR-HRP, that were incubated overnight with the test corrector compounds, either without or with the co-corrector. […] The test compounds were then added either without or with a co-corrector at the required concentrations and further incubated for 18-24 hours at 33° C. The highest concentration tested was 20 μM with an 8-point concentration response curve using a 3-fold dilution in both the test compound without or with the co-corrector. Three replicate plates were run to determine one EC50. All plates contained negative controls (dimethyl sulfoxide, DMSO) and positive control (2 μM of 3-[(2R,4R)-4-({[1-(2,2-difluoro-1,3-benzodioxol-5-yl)cyclopropyl]carbonyl}amino)-7-methoxy-3,4-dihydro-2H-chromen-2-yl]benzoic acid) as well as on-plate concentration response of the positive control. […] The raw counts from the experiment were analyzed using Accelrys® Assay Explorer v3.3.
1−[3*SDPositive Control+3*SDNegative Control/Absolute(MeanPositive Control−MeanNegative Control)]
wherein “SD” is standard deviation.
The % activity measured at each of the 8 test concentrations of the test compound added either without or with a co-corrector (2 μM of 3-[(2R,4R)-4-({[1-(2,2-difluoro-1,3-benzodioxol-5-yl)cyclopropyl]carbonyl}amino)-7-methoxy-3,4-dihydro-2H-chromen-2-yl]benzoic acid) was normalized to the on-plate positive control using the following formulae:
% activity(Test compound without co-corrector)=[(test compound without co-corrector response−DMSO response)/(positive control response−DMSO response)]*100
% activity(Test compound with co-corrector)=[(test compound with co-corrector response−DMSO response)/(positive control response−DMSO response)]*100
The maximum % activity achieved for the test compound either without or with a co-corrector at any tested concentration is presented in Table 4 along with the respective EC50's calculated using the following general sigmoidal curve with variable Hill slope equation (described as Model 42 in the Accelrys® Assay Explorer v3.3 software):
General sigmoidal curve with concentration, response, top, bottom, EC50 and Hill slope. This model describes a sigmoidal curve with an adjustable baseline, a. The equation can be used to fit curves where response is either increasing or decreasing with respect to the independent variable, “x”.
“x” is a concentration of drug under test. “y” is the response. “a” is the maximum response, and “d” is the minimum response “c” is the inflection point (EC50) for the curve. That is, “y” is halfway between the lower and upper asymptotes when x=c. “b” is the slope-factor or Hill coefficient. The sign of b is positive when the response increases with increasing dose and is negative when the response decreases with increasing dose (inhibition).

The mark [1] stands for this setting: CSE-HRP, test compound without co-corrector, read-out: EC50 (without co-corrector).
Where [2] appears, read: CSE-HRP, with co-corrector (2 μM of 3-[(2R,4R)-4-({[1-(2,2-difluoro-1,3-benzodioxol-5-yl)cyclopropyl]carbonyl}amino)-7-methoxy-3,4-dihydro-2H-chromen-2-yl]benzoic acid), read-out: EC50 (with co-corrector).
Where [3] appears, read: CSE-HRP, with co-corrector (2 μM).
The mark [4] stands for this setting: test compound without co-corrector.
[5] abbreviates: test compound without co-corrector, read-out: EC50 (without co-corrector).
Setting [6] is: with co-corrector (2 μM of 3-[(2R,4R)-4-({[1-(2,2-difluoro-1,3-benzodioxol-5-yl)cyclopropyl]carbonyl}amino)-7-methoxy-3,4-dihydro-2H-chromen-2-yl]benzoic acid).
Where [7] appears, read: with co-corrector (2 μM of 3-[(2R,4R)-4-({[1-(2,2-difluoro-1,3-benzodioxol-5-yl)cyclopropyl]carbonyl}amino)-7-methoxy-3,4-dihydro-2H-chromen-2-yl]benzoic acid), read-out: EC50 (with co-corrector).

T1 sequence (P13569 with tags, fused parts or gaps DEL508-508): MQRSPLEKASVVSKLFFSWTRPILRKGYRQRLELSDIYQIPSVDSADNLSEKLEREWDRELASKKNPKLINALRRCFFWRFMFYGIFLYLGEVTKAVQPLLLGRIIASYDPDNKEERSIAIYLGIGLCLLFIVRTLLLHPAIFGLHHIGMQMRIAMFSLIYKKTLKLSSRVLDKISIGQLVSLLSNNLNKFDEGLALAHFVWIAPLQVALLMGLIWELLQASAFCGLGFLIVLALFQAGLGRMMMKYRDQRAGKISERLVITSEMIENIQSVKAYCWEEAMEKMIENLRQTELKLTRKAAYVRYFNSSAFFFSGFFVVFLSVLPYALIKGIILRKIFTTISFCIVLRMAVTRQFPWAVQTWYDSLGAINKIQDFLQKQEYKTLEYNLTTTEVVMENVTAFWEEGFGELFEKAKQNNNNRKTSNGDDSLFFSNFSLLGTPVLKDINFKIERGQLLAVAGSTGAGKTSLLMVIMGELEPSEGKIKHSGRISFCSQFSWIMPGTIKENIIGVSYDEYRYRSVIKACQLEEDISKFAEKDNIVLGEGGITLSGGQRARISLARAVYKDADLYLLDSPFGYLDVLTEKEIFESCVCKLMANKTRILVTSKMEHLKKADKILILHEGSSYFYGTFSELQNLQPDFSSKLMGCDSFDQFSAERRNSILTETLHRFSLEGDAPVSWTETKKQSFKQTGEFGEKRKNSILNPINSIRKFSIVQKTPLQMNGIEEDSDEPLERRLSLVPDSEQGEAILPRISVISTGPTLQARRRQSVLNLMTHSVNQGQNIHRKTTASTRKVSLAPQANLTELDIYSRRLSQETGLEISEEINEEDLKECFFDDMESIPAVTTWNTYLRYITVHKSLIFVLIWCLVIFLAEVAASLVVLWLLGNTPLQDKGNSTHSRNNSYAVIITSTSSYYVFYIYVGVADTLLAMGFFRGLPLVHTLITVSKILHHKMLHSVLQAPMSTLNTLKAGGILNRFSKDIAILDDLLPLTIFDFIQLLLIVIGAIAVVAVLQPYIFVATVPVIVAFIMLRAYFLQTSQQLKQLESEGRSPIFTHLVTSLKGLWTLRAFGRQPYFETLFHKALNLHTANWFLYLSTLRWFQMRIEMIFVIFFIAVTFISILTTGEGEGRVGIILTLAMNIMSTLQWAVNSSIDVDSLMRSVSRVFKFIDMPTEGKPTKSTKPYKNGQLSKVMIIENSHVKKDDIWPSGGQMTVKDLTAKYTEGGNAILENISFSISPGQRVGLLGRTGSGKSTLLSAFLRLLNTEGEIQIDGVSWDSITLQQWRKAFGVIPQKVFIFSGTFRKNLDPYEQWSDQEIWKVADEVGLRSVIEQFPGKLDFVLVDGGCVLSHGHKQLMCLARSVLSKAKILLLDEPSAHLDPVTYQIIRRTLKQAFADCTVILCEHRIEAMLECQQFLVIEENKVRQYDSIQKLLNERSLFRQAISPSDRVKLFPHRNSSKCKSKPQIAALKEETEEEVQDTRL

In the case of `COc1ccc(Cl)cc1CN[C@@H]1[C@@H](C(C)(C)C)[C@H](C(=O)O)N(C(=O)C2COCCO2)[C@@H]1c1ccccc1` (mixture of isomers) [II-86], the EC50 (as a rule, the concentration that produces a half-maximal response) under setting [1] was in the range of 1 to 10 µM and the EC50 under setting [2] was 1 to 10 µM. Also, under setting [3], the “Maximum % activity (with co-corrector)” value was “++ (≥150 and <350)”. Also, the Emax (CSE-HRP, without co-corrector) was less than 100%.
Take `COc1cc(C(F)(F)F)ccc1CN[C@@H]1[C@@H](C(C)(C)OC)[C@H](C(=O)O)N(C(=O)C2CCCCC2)[C@@H]1c1ccccc1` (racemic) [II-88]: the EC50 reads like this: under setting [1], 1 to 10 µM; under setting [2], 1 to 10 µM. The “Maximum % activity (with co-corrector)” value under setting [3] was “+++ (≥350)”. The Emax (CSE-HRP, without co-corrector) fell in the range of 100 to 200%.
Take `COc1ncc(C(F)(F)F)cc1N[C@@H]1[C@@H](C(C)(C)OC)[C@H](C(=O)O)N(C(=O)C2CCCCC2)[C@@H]1c1ccccc1` (racemic) [II-89]: the EC50 under setting [1] is 1 to 10 µM and the EC50 under setting [2] lay in the range of 1 to 10 µM. Further, the “Maximum % activity (with co-corrector)” value under setting [3] was “++ (≥150 and <350)”. For the same molecule, the Emax (CSE-HRP, without co-corrector) is less than 100%.
For the molecule `COc1ccc(C(C)(C)C)cc1CN[C@@H]1[C@@H](C(C)(C)C)[C@H](C(=O)O)N(C(=O)OC2CCC2)[C@@H]1c1ccccc1` (racemic) [II-90], the EC50 reads like this: under setting [1], 1 to 10 µM; under setting [2], 1 to 10 µM. Moreover, the “Maximum % activity (with co-corrector)” value under setting [3] was “+++ (≥350)”. For the setting “CSE-HRP, without co-corrector”, the Emax was more than 200%.
`Cc1ccccc1CN[C@@H]1[C@@H](C(C)(C)C)[C@H](C(=O)O)N(C(=O)CC2CCCC2)[C@@H]1c1ccccc1` (racemic) [III-2]: the Emax under setting [4] was less than 100%. In addition, the EC50 is, setting by setting: under setting [5], more than 10 µM; under setting [7], 1 to 10 µM. Moreover, the “Maximum % activity (with co-corrector)” value under setting [6] is “++ (≥150 and <350)”.
For the molecule `CC(C)(C)[C@@H]1[C@@H](NCc2ccc(Cl)cc2Cl)[C@@H](c2ccccc2)N(C(=O)CC2CCCC2)[C@H]1C(=O)O` (racemic) [III-3], under setting [4], the Emax was less than 100%. Further, the EC50 reads like this: under setting [5], more than 10 µM; under setting [7], 1 to 10 µM. Besides, the “Maximum % activity (with co-corrector)” value under setting [6] is “++ (≥150 and <350)”.
Turning to `CC(C)(C)[C@@H]1[C@@H](Nc2cc(C(F)(F)F)ccn2)[C@@H](c2ccccc2)N(C(=O)C2CCCCC2)[C@H]1C(=O)O` (racemic) [III-4], under setting [4], the Emax was less than 100%. In addition, the EC50 lay within 1 to 10 µM under setting [5] and 1 to 10 µM under setting [7]. Moreover, under setting [6], the “Maximum % activity (with co-corrector)” value is on record as “+++ (≥350)”.
Regarding `CC(C)(C)[C@@H]1[C@@H](Nc2ccc(C(F)(F)F)cn2)[C@@H](c2ccccc2)N(C(=O)C2CCCCC2)[C@H]1C(=O)O` (racemic) [III-5], the Emax under setting [4] is less than 100%. The EC50 is 1 to 10 µM under setting [5] and 1 to 10 µM under setting [7]. Further, the “Maximum % activity (with co-corrector)” value under setting [6] is “++ (≥150 and <350)”.
Regarding `CC(C)(C)[C@@H]1[C@@H](Nc2cc(Cl)ccn2)[C@@H](c2ccccc2)N(C(=O)C2CCCCC2)[C@H]1C(=O)O` (racemic) [III-6], under setting [4], the Emax was less than 100%. The concentration giving a half-maximal response (EC50) runs as follows: under setting [5], more than 10 µM; under setting [7], 1 to 10 µM. Besides, the “Maximum % activity (with co-corrector)” value under setting [6] is “++ (≥150 and <350)”.
As for `CC(C)(C)[C@@H]1[C@@H](NCc2ccccc2OC(F)F)[C@@H](c2ccccc2)N(C(=O)C2CCCCC2)[C@H]1C(=O)O` (racemic) [III-7], under setting [4], the Emax was less than 100%. Further, the EC50 reads like this: under setting [5], 1 to 10 µM; under setting [7], 1 to 10 µM. Also, under setting [6], the “Maximum % activity (with co-corrector)” value is “+++ (≥350)”.
For `COc1cccc(N[C@@H]2[C@@H](C(C)(C)C)[C@H](C(=O)O)N(C(=O)C3CCCCC3)[C@@H]2c2ccccc2)n1` (racemic) [III-8], the Emax under setting [4] was less than 100%. Besides, the EC50 reads like this: under setting [5], 1 to 10 µM; under setting [7], 1 to 10 µM. Further, under setting [6], the “Maximum % activity (with co-corrector)” value was “+++ (≥350)”.
On to `CC(C)(C)[C@@H]1[C@@H](NCc2cccc(Cl)c2O)[C@@H](c2ccccc2)N(C(=O)C2CCCCC2)[C@H]1C(=O)O` (racemic) [III-9], for which, under setting [4], the Emax is less than 100%. Also, the EC50 reads like this: under setting [5], more than 10 µM; under setting [7], 1 to 10 µM. The “Maximum % activity (with co-corrector)” value under setting [6] is “++ (≥150 and <350)”.
